ChEMBL document CHEMBL1201862, “PubChem BioAssay data set” (2004)
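A five-concentration, 48-hour dose response in 96-well plates underlies each endpoint, interpolated linearly between surrounding concentrations. Here, GI50 denotes the concentration required for 50% inhibition of growth.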 Active and inactive are the calls of the source. Rule as the data show it: active = GI50 up to about 1.1 µM and inactive = higher.

What was measured:
Test in all cases: NCI tumour cell line growth inhibition, 48 h
NCI-H460 = test system: NCI-H460
MCF7 = test system: MCF7
SK-OV-3 = test system: SK-OV-3
MDA-MB-435 = test system: MDA-MB-435
ACHN = test system: ACHN
UACC-257 = test system: UACC-257
A549 = test system: A549
SK-MEL-28 = test system: SK-MEL-28
SF-268 = test system: SF-268
EKVX = test system: EKVX
COLO 205 = test system: COLO 205
TK-10 = test system: TK-10
HCT-15 = test system: HCT-15
MDA-MB-231 = test system: MDA-MB-231
SF-295 = test system: SF-295
UO-31 = test system: UO-31
T47D = test system: T47D
NCI/ADR-RES = test system: NCI/ADR-RES
UACC-62 = test system: UACC-62
IGROV-1 = test system: IGROV-1
A498 = test system: A498
Malme-3M = test system: Malme-3M
SW-620 = test system: SW-620
HOP-62 = test system: HOP-62
SK-MEL-5 = test system: SK-MEL-5
DU-145 = test system: DU-145
OVCAR-5 = test system: OVCAR-5
SNB-19 = test system: SNB-19
MDA-N = test system: MDA-N
K562 = test system: K562
HCT-116 = test system: HCT-116
OVCAR-3 = test system: OVCAR-3
PC-3 = test system: PC-3
CAKI-1 = test system: CAKI-1
NCI-H522 = test system: NCI-H522
HT-29 = test system: HT-29
LOX IMVI = test system: LOX IMVI
U-251 = test system: U-251
CCRF-CEM = test system: CCRF-CEM
M14 = test system: M14
SNB-75 = test system: SNB-75
OVCAR-8 = test system: OVCAR-8
HOP-92 = test system: HOP-92
HL-60 = test system: HL-60
NCI-H23 = test system: NCI-H23
MOLT-4 = test system: MOLT-4
SN12C = test system: SN12C
OVCAR-4 = test system: OVCAR-4
HCC 2998 = test system: HCC 2998
786-0 = test system: 786-0
RPMI-8226 = test system: RPMI-8226
NCI-H226 = test system: NCI-H226
KM12 = test system: KM12
RXF 393 = test system: RXF 393
SK-MEL-2 = test system: SK-MEL-2
SF-539 = test system: SF-539

With COc1ccc(-c2oc3ccccc3c(=O)c2O)cc1OC [3-HYDROXY-3',4'-DIMETHOXYFLAVONE] the GI50 (NCI-H460) was 4.69 µM (inactive), the GI50 (MCF7) was > 100 µM (inactive) and the GI50 (SK-OV-3) was 4.81 µM (inactive). The GI50 (MDA-MB-435) was > 100 µM (inactive), the GI50 (ACHN) was 10.6 µM (inactive) and the GI50 (UACC-257) was > 100 µM (inactive). The GI50 (A549) was > 100 µM (inactive), the GI50 (SK-MEL-28) was 25.3 µM (inactive) and the GI50 (SF-268) was 7.5 µM (inactive). The GI50 (EKVX) was > 100 µM (inactive), the GI50 (COLO 205) was > 100 µM (inactive) and the GI50 (TK-10) was 12.3 µM (inactive). For the same compound, the GI50 (HCT-15) was greater than 100 µM, the GI50 (MDA-MB-231) was > 100 µM (inactive) and the GI50 (SF-295) was 17.4 µM (inactive). The GI50 (UO-31) was > 100 µM (inactive), the GI50 (T47D) was 99.5 µM (inactive) and the GI50 (NCI/ADR-RES) was 3.77 µM (inactive). For the same compound, the GI50 (UACC-62) was 5.22 µM (inactive), the GI50 (IGROV-1) was 14.3 µM (inactive) and the GI50 (A498) was 6.92 µM (inactive). For the same compound, the GI50 (Malme-3M) was > 100 µM (inactive), the GI50 (SW-620) was > 100 µM (inactive) and the GI50 (HOP-62) was 11.2 µM (inactive). For the same compound, the GI50 (SK-MEL-5) was > 100 µM (inactive), the GI50 (DU-145) was 7.16 µM (inactive) and the GI50 (OVCAR-5) was > 100 µM (inactive). For the same compound, the GI50 (SNB-19) was 29 µM (inactive), the GI50 (MDA-N) was > 100 µM (inactive) and the GI50 (K562) was > 100 µM (inactive). For the same compound, the GI50 (HCT-116) was > 100 µM (inactive), the GI50 (OVCAR-3) was 47.5 µM (inactive) and the GI50 (PC-3) was > 100 µM (inactive). For the same compound, the GI50 (CAKI-1) was 55.2 µM (inactive), the GI50 (NCI-H522) was 4.63 µM (inactive) and the GI50 (HT-29) was > 100 µM (inactive). The GI50 (LOX IMVI) was 9.95 µM (inactive), the GI50 (U-251) was 4.92 µM (inactive) and the GI50 (CCRF-CEM) was 3.81 µM (inactive). The GI50 (M14) was > 100 µM (inactive).

In the case of NCc1ccc(-c2ccc(-c3ccc(-c4ccc(CN)s4)s3)s2)s1, the GI50 (SNB-75) is reported as > 100 µM (inactive), the GI50 (MCF7) is reported as > 100 µM (inactive) and the GI50 (OVCAR-8) is reported as > 100 µM (inactive). For the same compound, the GI50 (SK-OV-3) was > 100 µM (inactive), the GI50 (HOP-92) was > 100 µM (inactive) and the GI50 (MDA-MB-435) was > 100 µM (inactive). For the same compound, the GI50 (ACHN) was > 100 µM (inactive), the GI50 (UACC-257) was > 100 µM (inactive) and the GI50 (A549) was > 100 µM (inactive). The GI50 (SK-MEL-28) was > 100 µM (inactive), the GI50 (HL-60) was > 100 µM (inactive) and the GI50 (EKVX) was > 100 µM (inactive). For the same compound, the GI50 (NCI-H23) was > 100 µM (inactive), the GI50 (COLO 205) was > 100 µM (inactive) and the GI50 (MOLT-4) was > 100 µM (inactive). For the same compound, the GI50 (TK-10) was > 100 µM (inactive), the GI50 (HCT-15) was greater than 100 µM and the GI50 (MDA-MB-231) was > 100 µM (inactive). The GI50 (SF-295) was > 100 µM (inactive), the GI50 (UO-31) was > 100 µM (inactive) and the GI50 (T47D) was > 100 µM (inactive). The GI50 (NCI/ADR-RES) was > 100 µM (inactive), the GI50 (SN12C) was > 100 µM (inactive) and the GI50 (UACC-62) was > 100 µM (inactive). The GI50 (IGROV-1) was > 100 µM (inactive), the GI50 (A498) was > 100 µM (inactive) and the GI50 (Malme-3M) was > 100 µM (inactive). The GI50 (OVCAR-4) was > 100 µM (inactive), the GI50 (SW-620) was > 100 µM (inactive) and the GI50 (HOP-62) was > 100 µM (inactive). The GI50 (HCC 2998) was > 100 µM (inactive), the GI50 (SK-MEL-5) was > 100 µM (inactive) and the GI50 (786-0) was > 100 µM (inactive). For the same compound, the GI50 (DU-145) was > 100 µM (inactive), the GI50 (OVCAR-5) was > 100 µM (inactive) and the GI50 (RPMI-8226) was > 100 µM (inactive). For the same compound, the GI50 (SNB-19) was > 100 µM (inactive), the GI50 (NCI-H226) was > 100 µM (inactive) and the GI50 (MDA-N) was > 100 µM (inactive). The GI50 (K562) was > 100 µM (inactive), the GI50 (HCT-116) was > 100 µM (inactive) and the GI50 (OVCAR-3) was > 100 µM (inactive). The GI50 (KM12) was > 100 µM (inactive), the GI50 (PC-3) was > 100 µM (inactive) and the GI50 (CAKI-1) was > 100 µM (inactive). For the same compound, the GI50 (NCI-H522) was > 100 µM (inactive), the GI50 (HT-29) was > 100 µM (inactive) and the GI50 (LOX IMVI) was > 100 µM (inactive). The GI50 (U-251) was > 100 µM (inactive), the GI50 (RXF 393) was > 100 µM (inactive) and the GI50 (SK-MEL-2) was > 100 µM (inactive). For the same compound, the GI50 (CCRF-CEM) was > 100 µM (inactive), the GI50 (M14) was > 100 µM (inactive) and the GI50 (SF-539) was > 100 µM (inactive).
